Measured values as given in paper PMC7923269 (Journal of Personalized Medicine, 2021).
Like-named read-outs stand apart in the source and are kept apart here.

Key:
CYP3A [1] = settings: for Inhibition ratio of urinary 1β-OH-DCA excretion: after/before inhibition by fluvoxamine + voriconazole; for Urinary 1β-OH-DCA excretion: geometric mean (95% CI)
CYP3A [2] = assay: Oral midazolam pharmacokinetics (CYP3A phenotyping) in healthy volunteers at baseline, after inhibition and after induction; assay type: in vivo, human; settings: MDZ 1 mg oral; for Cmax: human, plasma, po
Method: Healthy volunteers were administered, as part of the Geneva cocktail, MDZ 1 mg for CYP3A phenotyping at baseline (control session). During the inhibition session, participants received MDZ 1 mg after fluvoxamine intake (50 mg, two doses 12 h and 2 h before MDZ administration) and voriconazole intake (400 mg, one dose 2 h before MDZ administration). MDZ 1 mg was also received after a pretreatment with the inducer rifampicin (600 mg, one tablet every evening for seven days until the evening before administration of MDZ) (induction session). Urine samples were collected over 8 h after MDZ administration at each session. Venous blood samples (3 mL) were collected before (time 0) as well as 0.5, 1, 2, 3, 4, 6, and 8 h after probe drug administration. Breakfast and lunch were served approximately 1 h and 4 h, respectively, after the blood sampling. The trial is registered at http://www.clinicaltrials.gov (NCT01731067).
Analyses of MDZ and OH-MDZ in plasma were performed using a single reverse-phase high-performance liquid chromatography coupled with tandem mass spectrometry (LC-MS/MS) method as described in the study of Bosilkosvka et al..
The pharmacokinetic parameters of MDZ were obtained by standard noncompartmental methods using WinNonlin version 6.2.1 (Pharsight, Mountain View, CA, USA).
Inhibition ratios were calculated as follows:(1) Inhibition ratio = Metricafter inhibition/Metricbefore inhibition.
Similarly, induction ratios were calculated as follows:(3) Induction ratio = Metricafter induction/Metricbefore induction.

CYP3A [3] = system: CYP3A; parameters: method as in PMID 19701237; settings: after clarithromycin 250 mg twice daily for five days vs baseline; p = 0.04; cited from earlier work
[4] = induction session (rifampicin 600 mg, 7 days)
[5] = inhibition session (fluvoxamine + voriconazole)

With `C[C@H](CCC(=O)O)[C@H]1CC[C@H]2[C@@H]3CC[C@@H]4C[C@H](O)C[C@@H](O)[C@]4(C)[C@H]3C[C@H](O)[C@]12C` [1β-OH-DCA, 1β-hydroxy-deoxycholic acid] the “Inhibition ratio of urinary 1β-OH-DCA excretion” value (CYP3A [1]) was 0.62, the “Inhibition ratio of urinary 1β-OH-DCA excretion” value (CYP3A [1]; listed as 1β-OH -DCA) was 0.62 (0.26–1.5) and the “Urinary 1β-OH-DCA excretion” value (CYP3A [1]; baseline) was 15.5 (5.8–41.3) µg/8 h. The “Urinary 1β-OH-DCA excretion” value (CYP3A [1]; [4]) was 61.8 (30.9–123.3) µg/8 h and the “Urinary 1β-OH-DCA excretion” value (CYP3A [1]; [5]) was 9.6 (4.1–22.5) µg/8 h.
In the case of `Cc1ncc2n1-c1ccc(Cl)cc1C(c1ccccc1F)=NC2` [MDZ, midazolam], the “Oral MDZ CL” value (CYP3A [2]; baseline, geometric mean (95% CI)) is reported as 143.0 (107.1–191.0) L/h, the “Oral MDZ CL” value (CYP3A [2]; [4]) is reported as 3296 (2351–4622) L/h and the “Oral MDZ CL” value (CYP3A [2]; [5]) is reported as 24.0 (19.7–29.3) L/h. The Cmax (CYP3A [2]; 1 mg, baseline) was 3.1 ng/mL, the Cmax (CYP3A [2]; [4]) was 0.15 ng/mL and the Cmax (CYP3A [2]; [5]) was 11.7 ng/mL.
For `C[C@]12CCC(=O)C=C1CC[C@@H]1[C@@H]2[C@@H](O)C[C@@]2(C)[C@H]1CC[C@]2(O)C(=O)CO` [cortisol], the “Increase in area under the concentration-time curve of plasma endogenous cortisol” value (CYP3A [3]) is listed as 19%.
